Source: patent US20090317501A1, “Pinus Pinea Plant Extracts For Treating Osteoporosis and the Extraction Process Thereof” (priority 2006, published 2009)

System: osteoclastic bone resorption
Assay: Bone resorption screening, CTX release by osteoclasts on bovine bone slices
Type: cell-based, human
Settings: positive control; DMSO negative control set to 100%; 5 days incubation
Source text: Studies have determined that osteoclasts are largely derived from CD14 positive monocytes (J. Haemotol, 1999 July; 106(1):167-70). Clonal analysis of haematopoietic cells by surface phenotypes has been used to further identify osteoclast precursor by characterizing osteoclast like cells distinct from other haematopoietic progenitors (Lee et.al; 1992b Muguruma & Lee; 1988). Surface phenotype analysis has shown that human osteoclasts are derived from CD14 monocytes (Massey & Flanagan, 1999). CD 14 marker is strongly expressed on monocytes, the putative osteoclast precursor in peripheral blood and CD14 positive monocytes have been selected for osteoclastogenesis. (Clin. Sci (Lond) 2000, August, 99 (2): 133-40).
The osteoclasts were isolated as CD 14 positive monocytes and were differentiated into osteoclasts for 10-12 days. Hereafter the osteoclasts were lifted by trypsin, counted and seeded on bovine bone slices at a density of 40,000 cells per bone slice. The osteoclasts were seeded on the cone slices for one day before the plant extracts were added. The osteoclasts were hereby allowed to attach and initiate the resorption activity. […]
The bone resorption experiment was ended after 5 days of incubation and the cell viability was measured by the use of the Alamar blue assay as represented in FIG. 3. […]

CO/C1=C\C(C)=C\[C@@H](C)[C@@H](O)[C@@H](C)C/C(C)=C/C=C/[C@H](OC)[C@@H]([C@@H](C)[C@@H](O)[C@H](C)[C@@]2(O)C[C@@H](O)[C@H](C)[C@@H](C(C)C)O2)OC1=O [Bafilomycin]
remaining bone resorption (CTX release) as % of DMSO control: approximately 8%
